Values quoted from earlier work as cited in patent US20070162983A1, “Diagnostic and therapeutic use of the human sgpl1 gene and protein for neurodegenerative diseases” (Evotec NeuroSciences GmbH, priority 2003, published 2007).

What was measured:
SGPL1 = conditions: known specific inhibitors of SGPL1 activity; for IC50: read-out: IC50, inhibition of SGPL1 activity
[1] = dogs, estimated (Tosaka et al., Stroke 2001)

Row | Compound | IC50 (SGPL1) [µM] | further results
1 | CCCC[C@H](C)[C@H](O)[C@H](O)C[C@H](C)C[C@@H](O)CCCC[C@@H](O)C[C@H](O)[C@H](C)N | 20 | –
2 | CCCCCCCCCCCCCCC[C@H](O)[C@@H](N)COP(=O)(O)O (single isomer, unassigned) [2D,3L-isomer of sphinganine phosphate] | – | Ki (SGPL1; read-out: Ki, inhibition of SGPL1 activity): 9.7 µM
3 | CCCCCCCCCCCCC/C=C/[C@@H](O)[C@@H](N)COP(=O)(O)O [S1P, sphingosine-1-phosphate] | – | half-life in cerebrospinal fluid (CSF) [1]: approximately 10 minutes
4 | 2-vinyl analog of sphinganine phosphate | 2.4 | –
